Results reported in PMC8667925, “New 1,2,4-oxadiazole derivatives with positive mGlu4 receptor modulation activity and antipsychotic-like properties” (Journal of Enzyme Inhibition and Medicinal Chemistry, 2021).
Entries after “also recorded” stand apart in the source; their conditions may differ.

Columns and labels:
[1] = target: T1, mGlu4 receptor (Homo sapiens, UniProt Q14833); assay: forskolin-induced cAMP assay, agonist mode, T-REx 293 cells; format: cell-based
T1 construct: mGlu4 receptor NM_000841, mGlu7 receptor NM_000844.2, and mGlu8 receptor NM_000845; expressed in transfected cells; host or cells: T-REx 293
T1 sequence (Q14833 33-912): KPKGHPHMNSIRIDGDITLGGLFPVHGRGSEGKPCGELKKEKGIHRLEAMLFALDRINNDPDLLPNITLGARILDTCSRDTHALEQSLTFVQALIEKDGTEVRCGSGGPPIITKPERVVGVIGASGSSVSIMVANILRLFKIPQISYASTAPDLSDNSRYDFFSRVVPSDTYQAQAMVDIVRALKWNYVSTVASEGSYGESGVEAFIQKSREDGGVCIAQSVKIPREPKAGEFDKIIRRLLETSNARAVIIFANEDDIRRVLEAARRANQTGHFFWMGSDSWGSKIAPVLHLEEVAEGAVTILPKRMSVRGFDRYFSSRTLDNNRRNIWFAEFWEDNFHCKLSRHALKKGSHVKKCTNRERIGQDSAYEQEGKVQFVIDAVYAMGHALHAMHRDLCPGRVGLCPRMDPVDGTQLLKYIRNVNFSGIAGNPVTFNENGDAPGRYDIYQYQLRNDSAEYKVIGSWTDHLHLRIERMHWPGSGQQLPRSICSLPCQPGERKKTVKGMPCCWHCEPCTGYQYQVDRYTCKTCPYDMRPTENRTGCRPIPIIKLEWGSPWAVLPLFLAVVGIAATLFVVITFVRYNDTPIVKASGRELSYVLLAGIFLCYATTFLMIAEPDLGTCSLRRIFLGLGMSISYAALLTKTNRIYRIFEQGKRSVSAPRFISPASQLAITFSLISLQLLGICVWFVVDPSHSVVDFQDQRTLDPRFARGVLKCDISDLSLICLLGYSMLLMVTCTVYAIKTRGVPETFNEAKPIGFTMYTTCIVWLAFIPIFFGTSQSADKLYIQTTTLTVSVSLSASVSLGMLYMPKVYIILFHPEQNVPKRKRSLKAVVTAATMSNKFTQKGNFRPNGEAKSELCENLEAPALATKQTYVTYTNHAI
Experimental: (§1) The compounds were tested in the agonist, PAM (in the presence of EC20 concentration of L-Glu) or NAM (with EC80 of L-Glu) modes of forskolin-induced cAMP using T-REx 293 cells expressing the protein of a given receptor.
(§2) Determination of the intracellular cAMP through a homogeneous time-resolved fluorescence (HTRF) cAMP dynamic 2 kit from Cisbio (Codolet, France) was described previously by Chruścicka et al.[91]. Briefly, cells were grown in DMEM supplemented with 10% foetal bovine serum (FBS) (tetracycline free). Forty-eight hours before the experiments, mGlu receptor expression was induced by the addition of 0.75 µg/mL tetracycline. Twenty hours before the experiment, FBS and L-Glu were removed from the medium. Thereafter, the cells were scraped and centrifuged. A cell pellet was suspended in Hanks-HEPES (130 mM NaCl, 5.4 mM KCl, 1.8 mM CaCl2, 0.8 mM MgSO4, 0.9 mM NaH2PO4, 20 mM HEPES, and 3.25 mM glucose; pH 7.4). Then, the cell suspension was incubated in the presence of 10 µM forskolin (or 3 µM forskolin for mGlu7 receptor), the agonist L-glutamate and a compound for 5 min. Next, 10 µl of the cell suspension was mixed with 5 µl of cAMP-d2 conjugate and 5 µL of anti-cAMP cryptate conjugate. After 1 h of incubation at rt, the fluorescence at 620 nm and 665 nm was read (Tecan Infinite M1000). The results were calculated as the 665 nm/620 nm ratio multiplied by 10^4. Each sample was prepared in triplicate.

[2] = target: T2, mGlu8 receptor (Homo sapiens, UniProt O00222); assay: cAMP accumulation assay in cells expressing mGlu8 receptor (agonist, PAM, NAM modes); format: cell-based; settings: 10 µM, agonist mode
T2 construct: mGlu4 receptor NM_000841, mGlu7 receptor NM_000844.2, and mGlu8 receptor NM_000845; expressed in transfected cells; host or cells: T-REx 293
T2 sequence (O00222 34-908): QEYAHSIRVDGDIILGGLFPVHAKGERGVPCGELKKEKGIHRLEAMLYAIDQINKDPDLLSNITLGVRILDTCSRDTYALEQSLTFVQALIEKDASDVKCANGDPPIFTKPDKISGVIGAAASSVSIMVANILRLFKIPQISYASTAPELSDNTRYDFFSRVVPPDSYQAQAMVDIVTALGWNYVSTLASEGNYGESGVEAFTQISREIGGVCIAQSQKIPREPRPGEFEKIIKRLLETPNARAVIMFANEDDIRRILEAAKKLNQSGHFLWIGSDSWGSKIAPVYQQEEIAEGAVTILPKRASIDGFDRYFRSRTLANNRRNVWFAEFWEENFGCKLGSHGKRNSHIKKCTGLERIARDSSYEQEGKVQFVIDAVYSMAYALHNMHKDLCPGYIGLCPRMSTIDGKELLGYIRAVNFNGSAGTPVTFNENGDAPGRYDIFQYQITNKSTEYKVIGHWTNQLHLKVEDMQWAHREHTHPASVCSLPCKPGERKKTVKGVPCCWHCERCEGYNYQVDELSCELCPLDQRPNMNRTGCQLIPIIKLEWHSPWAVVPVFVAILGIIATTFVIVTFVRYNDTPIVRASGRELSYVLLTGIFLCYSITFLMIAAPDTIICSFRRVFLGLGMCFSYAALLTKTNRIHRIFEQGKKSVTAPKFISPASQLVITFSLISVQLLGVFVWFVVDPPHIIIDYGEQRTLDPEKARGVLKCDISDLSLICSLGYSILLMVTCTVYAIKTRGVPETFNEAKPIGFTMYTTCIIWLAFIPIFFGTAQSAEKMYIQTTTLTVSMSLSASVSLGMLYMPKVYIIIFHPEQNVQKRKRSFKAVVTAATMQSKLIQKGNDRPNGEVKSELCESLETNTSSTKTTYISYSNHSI
Experimental: as §1
Figure 4. The activity of compounds 34, 37, 49, 52, 60, 62 and reference drugs MMPIP (a selective NAM of mGlu7 receptor) and AZ12216052 (a PAM of mGlu8 receptor) tested at a concentration of 10 μM in the cAMP accumulation assay in cells expressing mGlu7 and mGlu8 receptors. The percent activity refers to two extreme FRET signals: 0% corresponds to forskolin treatment alone and 100% to maximal FRET signal for the control cells (without any treatment). A/D – agonistic activity; B/E – PAM activity measured in the presence of L-Glu at the EC20 concentration (0.1 mM for mGlu7 receptor, and 1 μM for mGlu8 receptor); C/F – NAM activity measured in the presence of L-Glu at the EC80 concentration (1 mM for mGlu7 receptor, 10 μM for Glu8 receptor).
as §2

[3] = system: Albino Swiss mice; assay: modified stress-induced hyperthermia (SIH) in singly housed mice; format: in vivo
Experimental: The compounds were dissolved in a small amount of 100% EtOH and then adjusted with 20% cyclodextrin, and the pH was adjusted to 6.0. The investigated compounds were administered intraperitoneally (i.p.) 60 min before the behavioural test. Control drugs i.e. diazepam, clozapine and imipramine (Sigma–Aldrich, St. Louis, USA), were administered i.p. 60 min before the behavioural test. Cyclodextrin (20%) was used as a vehicle. All solutions were prepared immediately prior to the experiments and were administered at a constant volume of 10 ml/kg.
The procedure for modified stress-induced hyperthermia was adapted from Van der Heyden[93] and based on the procedure introduced by Borsini[94]. Each experimental group consisted of eight to ten animals. The animals were housed individually in a 26 × 21 × 14 cm Macolon cage 24 h before testing. For this assay, the body temperature was measured for each mouse at t = 0 min (T1) and t = +15 min (T2). Albino Swiss mice were placed into a new cage immediately following T1, with the difference in temperature (T2−T1) used as the measure of stress-induced hyperthermia. […] A comparison between T1 in vehicle-treated mice and those administered the test compound was used to determine whether the agent affects body temperature alone. Diazepam (5 mg/kg) was used as the positive control. The rectal temperature was measured to the nearest 0.1 °C with a Physitemp Theralert thermometer, TH-5, Clifton NJ, USA, with the temperature sensor for mice, Type T, Copper-Constantan Thermocouple, Braintree Scientific Inc. The lubricated thermistor probe (2 mm diameter) was inserted 20 mm into the rectum. The mouse was held at the base of the tail during this determination, and the thermistor probe was left in place until a constant reading was obtained for 15 s. The effects of the investigated compounds on the SIH response were investigated after administration of the compounds at doses of 5, 10 and 20 mg/kg.

[4] = 10 mg/kg i.p., 60 min before test
[5] = over the doses 5, 10 and 20 mg/kg i.p.
[6] = 5 mg/kg i.p., 60 min before test
[7] = 20 mg/kg i.p., 60 min before test

COc1cc(NC(=O)c2ccccn2)ccc1-c1noc(-c2ccccc2F)n1 [Compound 37]
EC50 [1]: 3940 nM | agonistic activity at mGlu8 receptor [2]: direct agonistic activity | effect on SIH response [3, 4]: effective; also recorded: weak activity | effect on SIH response [3, 5]: significant anxiolytic- and antipsychotic-like properties

O=C(Nc1ccc(-c2noc(-c3ccccc3Cl)n2)c(C(F)(F)F)c1)c1ccccn1 [Compound 60]
agonistic activity at mGlu8 receptor [2]: direct agonistic activity | effect on SIH response [3, 6]: reduced the temperature increase caused by stress | effect on SIH response [3, 7]: reduced the temperature increase caused by stress | effect on SIH response [3, 5]: significant anxiolytic- and antipsychotic-like properties

O=C(Nc1ccc(-c2noc(-c3ccccc3Cl)n2)c(Cl)c1)c1ccccn1 [Compound 52, N-(3-chloro-4-(5-(2-chlorophenyl)-1,2,4-oxadiazol-3-yl)phenyl)picolinamide]
agonistic activity at mGlu8 receptor [2]: direct agonistic activity | effect on SIH response [3, 5]: significant anxiolytic- and antipsychotic-like properties; also recorded: significantly reduced SIH responses at all three doses; also recorded: at all doses significantly reduced the SIH response

COc1cc(NC(=O)c2ccccn2)ccc1-c1noc(-c2ccccc2Cl)n1 [Compound 34]
EC50 [1]: 1110 nM | agonistic activity at mGlu8 receptor [2]: direct agonistic activity | effect on SIH response [3, 6]: not effective | effect on SIH response [3, 4]: effective; also recorded: statistically significant reduction in SIH | effect on SIH response [3, 7]: effective; also recorded: statistically significant reduction in SIH | effect on SIH response [3, 5]: significant anxiolytic- and antipsychotic-like properties
